Usually IC50 stands for the concentration needed to halve the response being measured.

Holding throughout (type): cell-based
One test concerns the target hA1 (Homo sapiens (Human), UniProt P30542). The test can be described thus: FLIPR inhibition assay in hADORA1/CHO (hA1 expressing) cells. As to conditions: FLIPR calcium, adenosine stimulation. How it is done: hADORA1/CHO (hA1 expressing) cells (Genscript) were plated at 1×10^4 cells/well into 384-well polystyrene plates one day before starting the experiment. On the day of experiment, the supernatant was discard and replaced with 40 µL of dye (FLIPR calcium 5 Assay Kit) per well and the plates were incubated for 60 mins at 37° C. plus 5% CO2. Then testing compounds were added at different concentrations for FLIPR™ inhibition assay. After a 400 s incubation with compound, […] adenosine was added into the cells, and the signal was captured by FLIPR.

In another test the target is hA2b (Homo sapiens (Human), UniProt P29275). Briefly: cAMP inhibition assay in hA2b/CHO cells. As to conditions: adenosine stimulation, read-out: cAMP & FLIPR IC50 (nM) hA2b. How it is done:
(§1) hA2a/CHO, hA2b/CHO and mA2a/CHO (Genscript) were plated at 5×10^3 cells/well into 384-well polystyrene plates at the day of experiment. Compounds were pre-incubated with cells for 30 min at 37° C., 5% CO2. Then […] adenosine was added to the cells and incubated for 30 min at 37° C., 5% CO2. Detection reagent (CISBIO) was added and the plates were incubated for 60 min at room temperature. The signal was captured by Envision.

The target in another test is mA2a (Mus musculus (Mouse), UniProt Q60613). Briefly: cAMP inhibition assay in mA2a/CHO cells. As to conditions: adenosine stimulation, read-out: cAMP & FLIPR IC50 (nM) mA2a. How it is done:
as §1

The next test deals with hA2a (Homo sapiens (Human), UniProt P29274). Briefly: cAMP inhibition assay in hA2a/CHO cells. As to conditions: adenosine stimulation, read-out: cAMP & FLIPR IC50 (nM) hA2a. How it is done:
as §1
FLIPR™ and cAMP inhibition activities of exemplary compounds in different adenosine receptor over-expressing cell lines are shown in Table 4 below.

Setting [1] is: hADORA1/CHO cells, read-out: cAMP & FLIPR IC50 (nM) hA1.
[2] abbreviates: cAMP & FLIPR IC50 (nM) hA1, hADORA1/CHO cells.

Like-named read-outs stand apart in the source and are kept apart here.

hA2a, sequence (P29274 whole entry): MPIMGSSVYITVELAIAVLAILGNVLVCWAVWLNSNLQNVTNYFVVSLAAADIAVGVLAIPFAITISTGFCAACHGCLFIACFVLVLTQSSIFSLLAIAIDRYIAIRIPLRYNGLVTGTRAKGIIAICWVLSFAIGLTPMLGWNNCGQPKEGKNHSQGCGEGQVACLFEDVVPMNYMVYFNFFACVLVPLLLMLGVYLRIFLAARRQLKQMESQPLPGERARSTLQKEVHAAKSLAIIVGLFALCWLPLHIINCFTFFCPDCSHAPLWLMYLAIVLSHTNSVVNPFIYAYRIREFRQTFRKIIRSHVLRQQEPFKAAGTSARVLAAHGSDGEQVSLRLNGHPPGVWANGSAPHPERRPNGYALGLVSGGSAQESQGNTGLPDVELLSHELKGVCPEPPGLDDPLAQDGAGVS
hA1, sequence (P30542 whole entry): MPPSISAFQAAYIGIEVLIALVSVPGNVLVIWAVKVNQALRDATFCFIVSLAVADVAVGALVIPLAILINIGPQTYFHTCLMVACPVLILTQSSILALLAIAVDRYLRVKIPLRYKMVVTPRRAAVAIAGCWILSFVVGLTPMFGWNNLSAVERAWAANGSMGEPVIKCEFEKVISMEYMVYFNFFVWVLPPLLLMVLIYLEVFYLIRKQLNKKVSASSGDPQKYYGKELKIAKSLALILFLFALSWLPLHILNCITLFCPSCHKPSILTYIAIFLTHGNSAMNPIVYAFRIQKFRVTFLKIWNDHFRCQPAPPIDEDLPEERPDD
hA2b, sequence (P29275 whole entry): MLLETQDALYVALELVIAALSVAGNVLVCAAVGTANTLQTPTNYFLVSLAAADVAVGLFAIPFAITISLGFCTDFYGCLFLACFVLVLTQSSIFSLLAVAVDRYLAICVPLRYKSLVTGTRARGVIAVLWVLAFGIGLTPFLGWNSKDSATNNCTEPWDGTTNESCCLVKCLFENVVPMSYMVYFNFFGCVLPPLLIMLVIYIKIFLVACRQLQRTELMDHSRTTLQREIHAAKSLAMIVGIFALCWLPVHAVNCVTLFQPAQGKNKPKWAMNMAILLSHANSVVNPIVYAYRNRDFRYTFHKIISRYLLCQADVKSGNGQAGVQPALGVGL
mA2a, sequence (Q60613 whole entry): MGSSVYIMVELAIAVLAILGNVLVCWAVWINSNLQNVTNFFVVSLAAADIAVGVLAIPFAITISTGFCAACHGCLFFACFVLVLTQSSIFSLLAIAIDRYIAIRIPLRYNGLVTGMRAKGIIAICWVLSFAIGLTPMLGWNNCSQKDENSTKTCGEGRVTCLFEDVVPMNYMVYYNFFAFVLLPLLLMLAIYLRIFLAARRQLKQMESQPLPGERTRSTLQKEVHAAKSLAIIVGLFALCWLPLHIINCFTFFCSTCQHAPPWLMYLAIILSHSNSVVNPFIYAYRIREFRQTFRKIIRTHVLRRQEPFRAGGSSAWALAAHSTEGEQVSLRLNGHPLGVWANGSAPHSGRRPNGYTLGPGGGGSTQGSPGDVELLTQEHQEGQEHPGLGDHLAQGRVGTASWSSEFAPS

Regarding `Cn1cc(-c2c(-c3ccc(Cl)cc3)nc(N)n3nc(Cc4ncccc4F)nc23)ccc1=O` [Example 56, 5-(5-amino-7-(4-chlorophenyl)-2-((3-fluoropyridin-2-yl)methyl)-[1,2,4]triazolo[1,5-c]pyrimidin-8-yl)-l-methylpyridin-2(1H)-one], the IC50 on hA1 (setting [1]) is 34 nM; at hA2b, 142 nM; on mA2a, 36 nM; at hA2a, 22 nM.
`Cn1cc(-c2c(-c3ccc(C#N)cc3)nc(N)n3nc(Cc4ncccc4F)nc23)ccc1=O` [Example 57, 4-(5-amino-2-((3-fluoropyridin-2-yl)methyl)-8-(1-methyl-6-oxo-1,6-dihydropyridin-3-yl)-[1,2,4]triazolo[l,5-c]pyrimidin-7-yl)benzonitrile]: the IC50 at hA1 (setting [1]) came out at 76 nM; on hA2b, 399 nM; on mA2a, 219 nM; at hA2a, 120 nM.
For `Cn1cc(-c2c(-c3ccc(F)cc3)nc(N)n3nc(Cc4cscn4)nc23)ccc1=O` [Example 58, 5-[5-amino-7-(4-fluorophenyl)-2-[(1,3-thiazol-4-yl)methyl]-[1,2,4]triazolo[1,5-c]pyrimidin-8-yl]-1-methyl-1,2-dihydropyridin-2-one], in that order: 25 nM, 2290 nM, 47 nM and 29 nM.
With `Cn1cc(-c2nc(N)n3nc(Cc4ncccc4F)nc3c2-c2ccc(=O)n(C)c2)cn1` [Example 59, 5-(5-amino-2-((3-fluoropyridin-2-yl)methyl)-7-(1-methyl-1H-pyrazol-4-yl)-[1,2,4]triazolo[1,5-c]pyrirridin-8-yl)-l-methylpyridin-2(1H)-one], the IC50 worked out at 37 nM on hA1 (setting [1]), 1550 nM at hA2b, 179 nM on mA2a and 98 nM at hA2a.
Consider `Nc1nc(-c2ccc(F)cc2)c(-c2ccc(=O)n(C3CS(=O)(=O)C3)c2)c2nc(Cc3c(F)cccc3F)nn12` [Example 60, 5-(5-amino-2-(2,6-difluorobenzyl)-7-(4-fluorophenyl)-[1,2,4]triazolo[1,5-c]pyrimidin-8-yl)-1-(1,1-dioxidothietan-3-yl)pyridin-2(1H)-one], for which the IC50 came out at 40 nM on hA1 (setting [1]), 3300 nM on hA2b, 16 nM at mA2a and 56 nM on hA2a.
In the case of `Cn1cc(-c2c(-n3cccn3)nc(N)n3nc(Cc4ncccc4F)nc23)ccc1=O` [Example 63, 5-[5-amino-2-[(3-fluoropyridin-2-yl)methyl]-7-(1H-pyrazol-1-yl)-[1,2,4]triazolo[1,5-c]pyrimidin-8-yl]-1-methyl-1,2-dihydropyridin-2-one], the IC50 was 250 nM on hA1 (setting [1]), 1560 nM on hA2b, 125 nM on mA2a and 122 nM on hA2a.
Take `Cn1cc(-c2c(-c3ccc(F)cc3F)nc(N)n3nc(Cc4ncccc4F)nc23)ccc1=O` [Example 64, 5-(5-amino-7-(2,4-difluorophenyl)-2-((3-fluoropyridin-2-yl)methyl)-[1,2,4]triazolo[1,5-c]pyrimidin-8-yl)-l-methylpyridin-2(lH)-one]: the IC50 worked out at 97 nM on hA1 (setting [1]), 742 nM at hA2b, 137 nM at mA2a and 68 nM on hA2a.
With `Nc1nc(-c2ccc(F)cc2)c(-c2ccc(=O)n(CCO)c2)c2nc(Cc3c(F)cccc3F)nn12` [Example 65, 5-(5-amino-2-(2,6-difluorobenzyl)-7-(4-fluorophenyl)-[1,2,4]triazolo[1,5-c]pyrimidin-8-yl)-1-(2-hydroxyethyl)pyridin-2(1H)-one], the IC50 at hA1 (setting [1]) amounted to 17 nM; on hA2b, 14 nM; at mA2a it was 0.6 nM; on hA2a, 0.2 nM.
For `Cn1cc(-c2c(-c3ccc(F)cc3)nc(N)n3nc(Cc4ncc(F)cc4F)nc23)ccc1=O` [Example 67, 5-(5-amino-2-((3,5-difluoropyridin-2-yl)methyl)-7-(4-fluorophenyl)-[1,2,4]triazolo[1,5-c]pyrimidin-8-yl)-1-methylpyridin-2(1H)-one], the IC50 at hA1 (setting [1]) is 13 nM; on hA2b, 3200 nM; at mA2a, 21 nM; on hA2a, 22 nM.
Consider `Cc1nc(Cc2nc3c(-c4ccc5nccn5c4)c(-c4ccc(F)cc4)nc(N)n3n2)cs1` [Example 68, 7-(4-fluorophenyl)-8-[imidazo[1,2-a]pyridin-6-yl]-2-[(2-methyl-1,3-thiazol-4-yl)methyl]-[1,2,4]triazolo[1,5-c]pyrimidin-5-amine], for which the IC50 at hA1 (setting [1]) came to 29 nM; on hA2b, 614 nM; on mA2a, 12 nM; on hA2a it was 3.2 nM.
Regarding `Cn1cnc2ccc(-c3c(-c4ccc(F)cc4)nc(N)n4nc(Cc5ncccc5F)nc34)cc21` [Example 69, 7-(4-fluorophenyl)-2-((3-fluoropyridin-2-yl)methyl)-8-(1-methyl-1H-benzo[d]imidazol-6-yl)-[1,2, 4]triazolo[l,5-c]pyrimidin-5-amine], the IC50 amounted to 22 nM on hA1 (setting [1]), 4.69 nM at hA2b, 0.3 nM at mA2a and 0.1 nM at hA2a.
In the case of `Nc1nc(-c2ccc(F)cc2)c(-c2ccc3nncn3c2)c2nc(Cc3ncccc3F)nn12` [Example 72, 8-([1,2,4]triazolo[4,3-a]pyridin-6-yl)-7-(4-fluorophenyl)-2-((3-fluoropyridin-2-yl)methyl)-[1,2,4]triazolo[1,5-c]pyrimidin-5-amine], the IC50 amounted to 9.7 nM on hA1 (setting [1]), 1050 nM on hA2b, 107 nM on mA2a and 37 nM on hA2a.
`Nc1nc(-c2ccc(F)cc2)c(-c2ccc3nccn3c2)c2nc(Cc3ncccc3OC(F)F)nn12` [Example 73]: the IC50 stood at 11 nM on hA1 (setting [2]), 4.8 nM at hA2b, 0.4 nM at mA2a and 0.1 nM at hA2a.
In the case of `Nc1nc(-c2ncco2)c(-c2ccc3nccn3c2)c2nc(Cc3ncccc3OC(F)F)nn12` [Example 74, 2-((3-(difluoromethoxy)pyridin-2-yl)methyI)-8-(imidazo[1,2-a]pyridin-6-yl)-7-(oxazol-2-yl)-[1,2, 4]triazolo[1,5-c]pyrimidin-5-amine], the IC50 on hA1 (setting [2]) was found to be 11 nM; on hA2b, 14 nM; at mA2a it was 1.2 nM; on hA2a, 0.8 nM.
On to `Nc1nc(-c2ccc(F)cc2)c(-c2ccc3nc[nH]c3c2)c2nc(Cc3ncccc3F)nn12` [Example 75, 8-(1H-benzo[d]imidazol-6-yl)-7-(4-fluorophenyl)-2-((3-fluoropyridin-2-yl)methyl)-[1,2,4]triazolo [l,5-c]pyrimidin-5-amine], for which the IC50 on hA1 (setting [1]) was found to be 31 nM; on hA2b, 38 nM; on mA2a it was 17 nM; on hA2a, 1.7 nM.
For `Cn1cc(-c2c(-c3cc(F)cc(F)c3)nc(N)n3nc(Cc4ncccc4F)nc23)ccc1=O` [Example 76, 5-(5-amino-7-(3,5-difliiorophenyl)-2-((3-fluoropyridin-2-yl)methyl)-[1,2,4]triazolo[1,5-c]pyrimidin-8-yl)-1-methylpyridin-2(1H)-one], in that order: 8.8 nM, 253 nM, 19 nM and 7.9 nM.

The values above are taken from patent US10858365B2, “Triazolo-pyrimidine compounds and uses thereof” (Dizal (Jiangsu) Pharmaceutical Co., Ltd., priority 2018, dated 2020).
